In patent publication US20130143929A1, “FUNGICIDAL IMIDAZOLES” (EI DU PONT DE NEMOURS AND COMPANY, priority 2010, published 2013):
Marks after values point to notes of the source that are not given here.

What was measured:
Format in all cases: in vivo
[1] = test system: Blumeria graminis f. sp. tritici (also known as Erysiphe graminis f. sp. tritici, the causal agent of wheat powdery mildew); assay: Test D: wheat powdery mildew, preventive spray on wheat seedlings, visual disease rating; settings: wheat powdery mildew, preventive spray on wheat seedlings
Summary of the method: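 Compound suspended in acetone/water (50/50) with 250 ppm Trem 014 and sprayed to run-off on wheat seedlings (200 ppm ≈ 800 g/ha), then inoculated next day with spore dust. Disease rated visually after 8 days at 20 °C as % control relative to untreated plants (0-100).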

[2] = test system: Botrytis cinerea (the causal agent of tomato Botrytis); assay: Test C: tomato Botrytis, preventive spray on tomato seedlings, visual disease rating; settings: tomato Botrytis, preventive spray on tomato seedlings
Summary of the method: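 Test suspension (acetone/water with 250 ppm Trem 014; 200 ppm equivalent to 800 g/ha) sprayed to run-off on tomato seedlings; B. cinerea spores inoculated next day. After 48 h saturated humidity at 20° C then 3 days at 24° C, disease rated visually as % control relative to untreated controls (0–100).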

[3] = test system: Septoria tritici (the causal agent of wheat leaf blotch); assay: Test B: wheat leaf blotch, preventive spray on wheat seedlings, visual disease rating; settings: wheat leaf blotch, preventive spray on wheat seedlings
Summary of the method: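 Wheat seedlings sprayed to run-off with compound suspension (acetone/water with 250 ppm Trem 014; 200 ppm ≈ 800 g/ha, some at 40 ppm), inoculated next day with Septoria tritici spores. 48 h saturated humidity at 24 °C, then 19 days at 20 °C; visual rating, 100 = full control.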

[4] = test system: Puccinia recondite f. sp. tritici (the causal agent of wheat leaf rust); assay: Test A: wheat leaf rust, preventive spray on wheat seedlings, visual disease rating; settings: wheat leaf rust, preventive spray on wheat seedlings
Summary of the method: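 Wheat seedlings were sprayed to run-off with compound suspended in acetone/water containing 250 ppm Trem 014 (200 ppm ≈ 800 g/ha; some at 40 ppm). Puccinia recondite spores were inoculated the next day. Plants were held 24 h saturated at 20° C, then 7 days at 20° C, and disease control was rated visually on a 0–100 scale against controls.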

[5] = no asterisk (standard test suspension concentration, not 40 ppm)
[6] = asterisk: 40 ppm test suspension

SMILES | Test D rating (100 = 100% disease control, 0 = no disease control relative to the controls) [1, 5] [%] | Test C rating (100 = 100% disease control, 0 = no disease control relative to the controls) [2, 5] [%] | Test B rating (100 = 100% disease control, 0 = no disease control relative to the controls) [3, 5] [%] | Test A rating (100 = 100% disease control, 0 = no disease control relative to the controls) [4, 5] [%] | Test D rating (100 = 100% disease control, 0 = no disease control relative to the controls) [1, 6] | Test C rating (100 = 100% disease control, 0 = no disease control relative to the controls) [2, 6] | Test B rating (100 = 100% disease control, 0 = no disease control relative to the controls) [3, 6] | Test A rating (100 = 100% disease control, 0 = no disease control relative to the controls) [4, 6]
COc1ccc(C(O)c2c(Cl)nc(C)n2-c2ccc(F)cc2Cl)c(Cl)c1 (racemic) [compound 255] | 0 | 8 | 96 | 100 |  |  |  | 
Cc1ncc(C(O)c2ccc(Cl)cc2Cl)n1-c1ccc(F)cc1F (racemic) [compound 256] | 0 | 0 | 6 | 55 |  |  |  | 
COc1cc(F)c(C(O)c2cnc(C)n2-c2ccc(F)cc2F)c(F)c1 (racemic) [compound 257] | 0 | 0 | 24 | 92 |  |  |  | 
COc1cc(F)c(C(O)c2c(Br)nc(C)n2-c2ccc(F)cc2F)c(F)c1 (racemic) [compound 258] | 0 | 79 | 95 | 100 |  |  |  | 
Cc1nc(Br)c(C(O)c2ccc(Cl)cc2Cl)n1-c1ccc(F)cc1F (racemic) [compound 259] | 0 | 0 | 100 | 99 |  |  |  | 
COc1ccc(C(O)c2c(Cl)ncn2-c2c(F)cccc2F)c(Cl)c1 (racemic) [compound 260] | 96 | 100 | 100 | 100 |  |  |  | 
COc1cc(F)c(C(O)c2c(Cl)nc(C)n2-c2ccc(F)cc2F)c(F)c1 (racemic) [compound 269] |  |  |  |  | 0* % | 66* % | 96* % | 100* %
Cc1nc(Cl)c(C(O)c2ccc(Cl)cc2Cl)n1-c1ccc(F)cc1F (racemic) [compound 270] |  |  |  |  | 0* % | 0* % | 69* % | 95* %
Cc1ncc(C(O)c2c(F)cc(Cl)cc2F)n1-c1ccc(F)cc1F (racemic) [compound 271] |  |  |  |  | 0* % | 0* % | 17* % | 0* %
Cc1nc(Cl)c(C(O)c2ccc(F)cc2Br)n1-c1ccc(F)cc1Cl (racemic) [compound 272] |  |  |  |  | 21* % | 93* % | 100* % | 100* %
Cc1nc(Cl)n(-c2c(F)cc(Cl)cc2F)c1C(O)c1ccc(F)cc1F (racemic) [compound 273] |  |  |  |  | 0* % | 99* % | 100* % | 100* %
COc1ccc(C(O)c2c(Br)nc(C)n2-c2c(F)cccc2Cl)c(F)c1 (racemic) [compound 275] |  |  |  |  | 99* % | 100* % | 100* % | 100* %
COc1ccc(C(O)c2c(Br)nc(C)n2-c2c(F)cccc2Cl)c(Cl)c1 (racemic) [compound 276] |  |  |  |  | 100* % | 100* % | 100* % | 100* %
COc1ccc(C(O)c2c(Cl)nc(C)n2-c2c(F)cccc2Cl)c(F)c1 (racemic) [compound 277] |  |  |  |  | 97* % | 100* % | 100* % | 100* %
COc1ccc(C(O)c2c(Cl)nc(C)n2-c2c(F)cccc2Cl)c(Cl)c1 (racemic) [compound 278] |  |  |  |  | 97* % | 100* % | 100* % | 100* %
COc1cc(OC)cc(-n2c(C)nc(Br)c2C(O)c2c(F)cc(F)cc2F)c1 (racemic) [compound 279] |  |  |  |  | 0* % | 0* % | 0* % | 0* %
COc1cc(F)ccc1C(O)c1c(Br)nc(C)n1-c1c(F)cccc1F (racemic) [compound 281] |  |  |  |  | 0* % | 0* % | 0* % | 92* %
COc1ccc(C(O)c2cnc(C)n2-c2ccc(F)cc2F)c(Cl)c1 (racemic) [compound 282] |  |  |  |  | 0* % | 0* % | 63* % | 92* %
COc1ccc(C(O)c2cnc(C)n2-c2ccc(F)cc2F)c(F)c1 (racemic) [compound 283] |  |  |  |  | 0* % | 0* % | 0* % | 41* %
COc1ccc(C(O)c2c(Br)nc(C)n2-c2ccc(F)cc2F)c(F)c1 (racemic) [compound 284] |  |  |  |  | 0* % | 41* % | 100* % | 100* %
COc1ccc(C(O)c2c(Br)nc(C)n2-c2ccc(F)cc2F)c(Cl)c1 (racemic) [compound 285] |  |  |  |  | 0* % | 0* % | 88* % | 99* %
COc1ccc(C(O)c2c(Br)nc(Br)n2-c2c(F)cccc2F)c(Cl)c1 (racemic) [compound 286] |  |  |  |  | 97* % | 100* % | 100* % | 100* %
Cc1nc(Br)n(-c2c(F)cc(Cl)cc2F)c1C(O)c1ccc(F)cc1F (racemic) [compound 299] |  |  |  |  | 87* % | 100* % | 100* % | 100* %
COc1ccc(C(O)c2cnc(C)n2-c2ccc(F)cc2Cl)c(F)c1 (racemic) [compound 300] |  |  |  |  | 0* % | 0* % | 95* % | 95* %
